Experimental data as given in patent publication US7906122B2 (priority 2003, dated 2011).

Test system: the 3 viral strains (pooled HN)
Set-up: species or system BALB/c mice
Settings: mouse, in vivo

“N-palmitoyl D-erythro sphingosyl carbamoyl-spermine [CCS]” was tested, and the “immunogenicity of CCS alone compared to CCS/Chol as the vaccine carrier” value was “no difference in immunogenicity”.
